Results on 17 molecules are retold here after article PMC10545747, “Development of cyclopeptide inhibitors of cGAS targeting protein-DNA interaction and phase separation” (Nature Communications, 2023).

Values joined by “and” are separate entries in the source; they are usually repeats but may differ in a detail not shown here. Equal values may be shown once. Read-outs that look alike come from different tables or passages of the source. Square brackets hold non-standard residues; d marks the D form. Peptide text beside a SMILES is read from it. Orn = NCCC[C@H](N)C(=O)O

The target in this assay is T1, recombinant human cGAS enzyme (hcGAS-ΔN, residues 147–522) (Homo sapiens, UniProt Q8N884).
T1 construct: N-terminally truncated human cGAS (hcGAS-ΔN, residues 147–522); 6xHis-SUMO (N, cleaved yes); made in house; host or cells: Escherichia coli BL21 (DE3)
As to the kind of experiment: RNA-based fluorescent biosensor assay of cGAS activity (2',3'-cGAMP formation), in vitro screening. It is filed as biochemical. Particulars: for Remaining activity (%), Fig. 1a source data / remaining activity at 20 µM: 20 μM, replicate values; for remaining activity at 20 µM: read-out: Remaining activity (%), Fig. 1a source data. The text has this:
To screen direct cGAS inhibitors targeting protein-DNA interface from our developed focused library of macrocyclic peptides, we applied an RNA-based fluorescent biosensor for 2’,3’-cGAMP to detect cGAS activity in vitro (Supplementary Fig. 1a)[49]. The formation of 2’,3’-cGAMP from ATP and GTP was catalyzed by recombinant human cGAS enzyme (hcGAS-ΔN, residues 147–522, Supplementary Fig. 1b) in the presence of ISD (interferon stimulatory DNA, a 45-bp dsDNA), which was readily quantified by the RNA-based fluorescent biosensor and was further confirmed by ion exchange chromatography (Supplementary Fig. 1c). […] Subsequently, a total of 90 macrocyclic peptides were screened at a concentration of 20 μM (Fig. 1a and Supplementary Fig. 1e), and 4 hits (XQ2, XQ8, XQ19, and XQ46) were obtained for further testing at a cut-off of 40% inhibition (Supplementary Table 1). To evaluate the inhibitory effect of the hits against cGAS in cells, we employed real-time quantitative PCR (qPCR) to examine mRNA levels of IFNΒ1 in THP1 cells. The reported cGAS inhibitor RU.521 was used as the positive control, and the non-active peptide XQ28 in the screening assay was used as the negative control. […] The inhibition of cGAS by these hits was further confirmed in the reporter cell line THP1-Lucia ISG (Invivogen) that expresses secreted luciferase induced by an IRF3-inducible ISG54 promoter (Fig. 1c). The discrepancy between the inhibitory effect of the hits in protein and cellular assays may be attributed to their different cellular permeability.
The high-throughput screening (HTS) experiments of cGAS activity are based on the method previously described. To initiate the enzyme reaction, ISD was added to the reaction solution (40 mM Tris-HCl, pH 7.5, 100 mM NaCl, 10 mM MgCl2) containing hcGAS-ΔN, ATP (Sangon Biotech, Cat# A600311) and GTP (Sangon Biotech, Cat# A620332) in a total volume of 20 ul with the final concentration of 0.5 μM, 1.5 μM, 1 mM, 1 mM, respectively, and incubated for 2 h at 37 °C. For HTS experiments, compounds were added to the same reaction conditions as described above with the final concentration of 20 μM. Z’ factors were calculated from three replicates in the 384-well plate.

[1] abbreviates: peptides screened at 20 μM, Supplementary Table 1 / Fig. S5b, read-out: Inhibition %.

T1 sequence (Q8N884 147-522, stated change not applied): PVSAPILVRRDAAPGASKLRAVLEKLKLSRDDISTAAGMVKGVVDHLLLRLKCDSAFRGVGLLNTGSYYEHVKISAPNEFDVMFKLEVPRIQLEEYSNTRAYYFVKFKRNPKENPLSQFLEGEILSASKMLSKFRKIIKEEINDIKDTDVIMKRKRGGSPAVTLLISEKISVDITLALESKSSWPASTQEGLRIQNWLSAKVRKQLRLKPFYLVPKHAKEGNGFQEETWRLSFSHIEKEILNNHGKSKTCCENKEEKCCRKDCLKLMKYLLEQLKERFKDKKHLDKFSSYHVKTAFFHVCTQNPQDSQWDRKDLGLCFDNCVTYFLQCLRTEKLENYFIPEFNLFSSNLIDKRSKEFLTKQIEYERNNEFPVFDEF

As usually defined, the remaining activity is the signal under treatment as a percentage of the control signal. For orientation: inhibition means the change of the read-out against control, counted positive when it falls. In the case of `CC(C)C[C@@H]1NC(=O)[C@H](CCCNC(=N)N)NC(=O)[C@H]([C@@H](C)O)NC(=O)[C@@H]2CCCN2C(=O)[C@@H](Cc2ccccc2)NC(=O)[C@H](CC(C)C)NC(=O)[C@H](CCCNC(=N)N)NC(=O)[C@H](C)NC(=O)[C@@H]2CCCN2C(=O)[C@@H](Cc2ccccc2)NC1=O` [XQ36, Cyclo (LfPARLfPTR)] (cyclo(ARL[dF]PTRL[dF]P)), the “Remaining activity (%), Fig. 1a source data” value (“Remaining activity (%)” below) is 88.7067% and 87.9053%; the remaining activity at 20 µM stood at 89.5%. The inhibition at 20 µM under setting [1] turned out to be 11%.
Take `CC(C)C[C@@H]1NC(=O)[C@H](CCCNC(=N)N)NC(=O)[C@H]([C@@H](C)O)NC(=O)[C@@H]2CCCN2C(=O)[C@@H](Cc2ccccc2)NC(=O)[C@H](C)NC(=O)[C@H](CCCNC(=N)N)NC(=O)[C@H]([C@@H](C)O)NC(=O)[C@@H]2CCCN2C(=O)[C@@H](Cc2ccccc2)NC1=O` [XQ37, Cyclo (AfPTRLfPTR)] (cyclo(A[dF]PTRL[dF]PTR)): the “Remaining activity (%)” value is 81.1407% and 81.3464%; the remaining activity at 20 µM was 81%. In addition, the inhibition at 20 µM under setting [1] was determined as 18%.
With `CC(C)C[C@@H]1NC(=O)[C@H](CCCNC(=N)N)NC(=O)[C@H](C(C)C)NC(=O)[C@@H]2CCCN2C(=O)[C@@H](Cc2ccccc2)NC(=O)[C@H](CC(C)C)NC(=O)[C@H](CCCNC(=N)N)NC(=O)[C@H](C(C)C)NC(=O)[C@@H]2CCCN2C(=O)[C@@H](Cc2ccccc2)NC1=O` [XQ38, Cyclo (LfPVRLfPVR)] (cyclo(L[dF]PVRL[dF]PVR)), the “Remaining activity (%)” value was 112.545% and 112.328%; the remaining activity at 20 µM was 113%. Moreover, the inhibition at 20 µM under setting [1] amounted to 0%.
As for `CC(C)C[C@@H]1NC(=O)[C@H](CCCN)NC(=O)[C@H](C(C)C)NC(=O)[C@@H]2CCCN2C(=O)[C@@H](Cc2ccccc2)NC(=O)[C@H](CC(C)C)NC(=O)[C@H](CCCN)NC(=O)[C@H](C(C)C)NC(=O)[C@@H]2CCCN2C(=O)[C@@H](Cc2ccccc2)NC1=O` [XQ39, Cyclo (LfPV(Orn)LfPV(Orn))] (cyclo(V[Orn]L[dF]PV[Orn]L[dF]P)), the “Remaining activity (%)” value was 96.3833% and 97.8523%; the remaining activity at 20 µM stood at 97.2%. For the same molecule, the inhibition at 20 µM under setting [1] turned out to be 3%.
Regarding `CC(C)C[C@@H]1NC(=O)[C@H](CCCNC(=N)N)NC(=O)[C@H]([C@@H](C)O)NC(=O)[C@@H]2CCCN2C(=O)[C@@H](C)NC(=O)[C@H](CC(C)C)NC(=O)[C@H](CCCNC(=N)N)NC(=O)[C@H]([C@@H](C)O)NC(=O)[C@@H]2CCCN2C(=O)[C@@H](C)NC1=O` [XQ40, Cyclo (LaPTRLaPTR)] (cyclo(L[dA]PTRL[dA]PTR)), the “Remaining activity (%)” value was 115.337% and 116.119%; the remaining activity at 20 µM was found to be 117%. Under setting [1], the inhibition at 20 µM was determined as 0%.
With `CC(C)C[C@@H]1NC(=O)[C@H](CCCNC(=N)N)NC(=O)[C@H]([C@@H](C)O)NC(=O)[C@@H]2CCCN2C(=O)[C@@H](Cc2ccccc2)NC(=O)[C@H](CC(C)C)NC(=O)[C@H](CCCNC(=N)N)NC(=O)[C@H](C(C)C)NC(=O)[C@@H]2CCCN2C(=O)[C@@H](Cc2ccccc2)NC1=O` [XQ42, Cyclo (LfPTRLfPVR)] (cyclo(L[dF]PTRL[dF]PVR)), the “Remaining activity (%)” value is 87.273% and 87.6684%; the remaining activity at 20 µM is 86%. For the same molecule, the inhibition at 20 µM under setting [1] came out at 13%.
For `CC(C)C[C@@H]1NC(=O)[C@H](C)NC(=O)[C@H](CCCNC(=N)N)NC(=O)[C@@H]2CCCN2C(=O)[C@@H](Cc2ccccc2)NC(=O)[C@H](CC(C)C)NC(=O)[C@H](CCCNC(=N)N)NC(=O)[C@H](C(C)C)NC(=O)[C@@H]2CCCN2C(=O)[C@@H](Cc2ccccc2)NC1=O` [XQ43, Cyclo (LfPRALfPVR)] (cyclo(AL[dF]PVRL[dF]PR)), the “Remaining activity (%)” value was 77.1619% and 77.2258%; the remaining activity at 20 µM was 76.3%. Further, the inhibition at 20 µM under setting [1] worked out at 23%.
`CC(C)C[C@@H]1NC(=O)[C@H](C)NC(=O)[C@H](C(C)C)NC(=O)[C@@H]2CCCN2C(=O)[C@@H](Cc2ccccc2)NC(=O)[C@H](CCCNC(=N)N)NC(=O)[C@H](CCCNC(=N)N)NC(=O)[C@H](C(C)C)NC(=O)[C@@H]2CCCN2C(=O)[C@@H](Cc2ccccc2)NC1=O` [XQ44, Cyclo (RfPVALfPVR)] (cyclo(AL[dF]PVRR[dF]PV)): the “Remaining activity (%)” value is 107.77% and 107.519%; the remaining activity at 20 µM stood at 107%. For the same molecule, the inhibition at 20 µM under setting [1] was determined as 0%.
Consider `CC(C)C[C@@H]1NC(=O)[C@H](C)NC(=O)[C@H](C(C)C)NC(=O)[C@@H]2CCCN2C(=O)[C@@H](Cc2ccccc2)NC(=O)[C@H](CC(C)C)NC(=O)[C@H](CCCNC(=N)N)NC(=O)[C@H](C(C)C)NC(=O)[C@H](CCCNC(=N)N)NC(=O)[C@@H](Cc2ccccc2)NC1=O` [XQ45, Cyclo (LfRVRLfPVA)] (cyclo(AL[dF]RVRL[dF]PV)), for which the “Remaining activity (%)” value is 110.841% and 109.702%; the remaining activity at 20 µM is 115%. For the same molecule, under setting [1], the inhibition at 20 µM turned out to be 0%.
As to `CC(C)C[C@@H]1NC(=O)[C@H](CCCNC(=N)N)NC(=O)[C@H](CC(C)C)NC(=O)[C@@H]2CCCN2C(=O)[C@@H](Cc2ccccc2)NC(=O)[C@H](C)NC(=O)[C@H](CCCNC(=N)N)NC(=O)[C@H](C(C)C)NC(=O)[C@@H]2CCCN2C(=O)[C@@H](Cc2ccccc2)NC1=O` [XQ47, Cyclo (AfPLRLfPVR)] (cyclo(A[dF]PLRL[dF]PVR)), the inhibition at 20 µM under setting [1] was found to be 0%.
`CC(C)C[C@@H]1NC(=O)[C@H](CCCNC(=N)N)NC(=O)[C@H](C(C)C)NC(=O)[C@H](CC(C)C)NC(=O)[C@@H](Cc2ccccc2)NC(=O)[C@H](C)NC(=O)[C@H](CCCNC(=N)N)NC(=O)[C@H](C(C)C)NC(=O)[C@@H]2CCCN2C(=O)[C@@H](Cc2ccccc2)NC1=O` [XQ48, Cyclo (AfLVRLfPVR)] (cyclo(A[dF]LVRL[dF]PVR)): under setting [1], the inhibition at 20 µM is 0%.
On to `CC(C)C[C@@H]1NC(=O)[C@H](CCCNC(=N)N)NC(=O)[C@H](C(C)C)NC(=O)[C@@H]2CCCN2C(=O)[C@@H](CC(C)C)NC(=O)[C@H](C)NC(=O)[C@H](CCCNC(=N)N)NC(=O)[C@H](C(C)C)NC(=O)[C@@H]2CCCN2C(=O)[C@@H](Cc2ccccc2)NC1=O` [XQ49, Cyclo (AlPVRLfPVR)] (cyclo(A[dL]PVRL[dF]PVR)), for which the inhibition at 20 µM is 0%.
As to `CC(C)C[C@@H]1NC(=O)[C@H](CCCNC(=N)N)NC(=O)[C@H](C(C)C)NC(=O)[C@@H]2CCCN2C(=O)[C@@H](Cc2ccccc2)NC(=O)[C@H](C)NC(=O)[C@H](CC(C)C)NC(=O)[C@H](C(C)C)NC(=O)[C@@H]2CCCN2C(=O)[C@@H](Cc2ccccc2)NC1=O` [XQ50, Cyclo (LfPVLAfPVR)] (cyclo(A[dF]PVRL[dF]PVL)), under setting [1], the inhibition at 20 µM is 0%.
As for `CC(C)C[C@@H]1NC(=O)[C@H](CCCNC(=N)N)NC(=O)[C@H](C(C)C)NC(=O)[C@@H]2CCCN2C(=O)[C@@H](Cc2ccccc2)NC(=O)[C@H](C)NC(=O)[C@H](CCCNC(=N)N)NC(=O)[C@H](CC(C)C)NC(=O)[C@@H]2CCCN2C(=O)[C@@H](Cc2ccccc2)NC1=O` [XQ51, Cyclo (LfPLRAfPVR)] (cyclo(A[dF]PVRL[dF]PLR)), the inhibition at 20 µM under setting [1] turned out to be 0%.
Same read-out and setting: then `CC(C)C[C@@H]1NC(=O)[C@H](CCCNC(=N)N)NC(=O)[C@H](C(C)C)NC(=O)[C@@H]2CCCN2C(=O)[C@@H](Cc2ccccc2)NC(=O)[C@H](C)NC(=O)[C@H](CCCNC(=N)N)NC(=O)[C@H](C(C)C)NC(=O)[C@H](CC(C)C)NC(=O)[C@@H](Cc2ccccc2)NC1=O` [XQ52, Cyclo (LfLVRAfPVR)] (cyclo(A[dF]PVRL[dF]LVR)), with 0%.
On the same count and under the same terms, then `CC(C)C[C@@H]1NC(=O)[C@H](CCCNC(=N)N)NC(=O)[C@H](C(C)C)NC(=O)[C@@H]2CCCN2C(=O)[C@@H](Cc2ccccc2)NC(=O)[C@H](C)NC(=O)[C@H](CCCNC(=N)N)NC(=O)[C@H](C(C)C)NC(=O)[C@@H]2CCCN2C(=O)[C@@H](CC(C)C)NC1=O` [XQ53, Cyclo (LlPVRAfPVR)] (cyclo(A[dF]PVRL[dL]PVR)), with 0%; and `CC(C)C[C@@H]1NC(=O)[C@H](CCCNC(=N)N)NC(=O)[C@H](C(C)C)NC(=O)[C@@H]2CCCN2C(=O)[C@@H](Cc2ccccc2)NC(=O)[C@H](CC(C)C)NC(=O)[C@H](CCCNC(=N)N)NC(=O)[C@H](CC(C)C)NC(=O)[C@@H]2CCCN2C(=O)[C@@H](Cc2ccccc2)NC1=O` [XQ54, Cyclo (LfPLRLfPVR)] (cyclo(LRL[dF]PVRL[dF]P)), with 0%.
